Measurements taken from the CheMixHub viscosity set.

Experiment: xn = mol fraction of the nth substance listed

CC(C)NC(C)C + CC(C)CO
viscosity [mPa·s], 100 kPa
Conditions | 298.15 K | 303.15 K | 308.15 K
x1 = 0.0559 | 2.916 | 2.467 | 2.005
x1 = 0.1015 | 2.616 | 2.232 | 1.833
x1 = 0.1519 | 2.295 | 1.98 | 1.662
x1 = 0.2069 | 1.995 | 1.738 | 1.459
x1 = 0.2516 | 1.765 | 1.549 | 1.319
x1 = 0.3055 | 1.507 | 1.346 | 1.155
x1 = 0.3944 | 1.194 | 1.067 | 0.931
x1 = 0.4988 | 0.926 | 0.837 | 0.743
x1 = 0.6017 | 0.73 | 0.674 | 0.607
x1 = 0.7131 | 0.586 | 0.553 | 0.509
x1 = 0.8018 | 0.504 | 0.485 | 0.448
x1 = 0.865 | 0.455 | 0.441 | 0.409
x1 = 0.9062 | 0.433 | 0.419 | 0.395
x1 = 0.9423 | 0.409 | 0.396 | 0.379

CC(C)NC(C)C + CC(C)O
viscosity [mPa·s], 100 kPa
Conditions | 298.15 K | 303.15 K | 308.15 K
x1 = 0.0499 | 1.789 | 1.565 | 1.397
x1 = 0.1033 | 1.565 | 1.393 | 1.253
x1 = 0.1405 | 1.437 | 1.28 | 1.153
x1 = 0.2062 | 1.245 | 1.108 | 1.004
x1 = 0.2498 | 1.123 | 1.012 | 0.922
x1 = 0.303 | 1.003 | 0.904 | 0.825
x1 = 0.4121 | 0.809 | 0.735 | 0.677
x1 = 0.4955 | 0.698 | 0.639 | 0.593
x1 = 0.5984 | 0.592 | 0.551 | 0.513
x1 = 0.6974 | 0.52 | 0.498 | 0.466
x1 = 0.7902 | 0.468 | 0.447 | 0.421
x1 = 0.8632 | 0.434 | 0.419 | 0.398
x1 = 0.9067 | 0.412 | 0.401 | 0.382
x1 = 0.9459 | 0.397 | 0.388 | 0.3694

NCc1ccccc1 + CCC(C)(C)O
viscosity [mPa·s], 101.33 kPa
Conditions | x1 = 0.1 | x1 = 0.2001 | x1 = 0.3 | x1 = 0.4 | x1 = 0.5 | x1 = 0.6 | x1 = 0.6999 | x1 = 0.7994 | x1 = 0.8998
298.15 K | 3.228 | 2.988 | 2.781 | 2.576 | 2.394 | 2.223 | 2.067 | 1.927 | 1.792
303.15 K | 2.641 | 2.463 | 2.289 | 2.143 | 1.995 | 1.882 | 1.773 | 1.668 | 1.578
308.15 K | 2.193 | 2.043 | 1.919 | 1.793 | 1.696 | 1.609 | 1.533 | 1.468 | 1.422

NCc1ccccc1 + CCC(C)CO
viscosity [mPa·s], 101.33 kPa
Conditions | x1 = 0.1 | x1 = 0.2 | x1 = 0.3001 | x1 = 0.3999 | x1 = 0.5 | x1 = 0.6 | x1 = 0.6998 | x1 = 0.7989 | x1 = 0.8999
298.15 K | 4.232 | 3.772 | 3.382 | 3.039 | 2.708 | 2.435 | 2.181 | 1.984 | 1.796
303.15 K | 3.472 | 3.103 | 2.773 | 2.478 | 2.243 | 2.048 | 1.849 | 1.691 | 1.572
308.15 K | 2.453 | 2.227 | 2.02 | 1.837 | 1.711 | 1.595 | 1.5 | 1.423 | 1.377

NCc1ccccc1 + CCCC(C)O
viscosity [mPa·s], 101.33 kPa
Conditions | x1 = 0.1 | x1 = 0.2002 | x1 = 0.3001 | x1 = 0.4001 | x1 = 0.4997 | x1 = 0.6 | x1 = 0.6989 | x1 = 0.8 | x1 = 0.8998
298.15 K | 3.179 | 2.906 | 2.676 | 2.466 | 2.274 | 2.11 | 1.976 | 1.854 | 1.75
303.15 K | 2.626 | 2.395 | 2.192 | 2.038 | 1.893 | 1.765 | 1.666 | 1.587 | 1.532
308.15 K | 2.199 | 2.034 | 1.884 | 1.759 | 1.642 | 1.559 | 1.482 | 1.436 | 1.401

CCOC(=O)CCBr + CCCCCC
303.15 K, 101 kPa
Conditions | viscosity [mPa·s]
x1 = 0.2142 | 0.3919
x1 = 0.4043 | 0.55
x1 = 0.5019 | 0.674
x1 = 0.6029 | 0.8315
x1 = 0.8046 | 1.263

CCCCCCCCCCCCCCCCCC + CCCCCCC
101 kPa, x2 = 0.5
Conditions | viscosity [mPa·s]
298 K | 1.73
318 K | 1.241

CCCCCCCCCc1ccccc1 + CCCCCCC
313.15 K, 100 kPa
Conditions | viscosity [mPa·s]
x2 = 0.097 | 1.82
x2 = 0.265 | 1.398
x2 = 0.405 | 1.111
x2 = 0.523 | 0.918
x2 = 0.671 | 0.691
x2 = 0.754 | 0.59
x2 = 0.86 | 0.411

CCCCCCCCCc1ccccc1 + CCCCCCCCCCCC
viscosity [mPa·s], 102 kPa
Conditions | x1 = 0.1006 | x1 = 0.2 | x1 = 0.3002 | x1 = 0.4001 | x1 = 0.5 | x1 = 0.5999 | x1 = 0.7004 | x1 = 0.8064 | x1 = 0.8998
293.15 K | 1.59 | 1.69 | 1.81 | 1.94 | 2.09 | 2.25 | 2.44 | 2.66 | 2.88
303.15 K | 1.33 | 1.41 | 1.5 | 1.61 | 1.72 | 1.84 | 1.99 | 2.15 | 2.31
313.15 K | 1.13 | 1.2 | 1.27 | 1.35 | 1.44 | 1.54 | 1.65 | 1.78 | 1.9
323.15 K | 0.971 | 1.03 | 1.09 | 1.16 | 1.23 | 1.31 | 1.4 | 1.5 | 1.59
